One molecule from patent US20080139520A1, “Altering cholesterol and fat uptake by novel allosteric inhibitors of pancreatic phospholipase A2” (priority 2006, published 2008) can be followed below.

One experiment deals with T1, human pancreatic IB PLA2 (Homo sapiens, UniProt P04054).
T1 construct: gift of Dr. Suren Tatulian (Orlando, Fla.)
Kind of experiment: Rate-lowering of hydrolysis of DMPC + 0.05 mole fraction cholate vesicles by human pancreatic PLA2. It counts as biochemical. From the text: Independent support for selective binding of the rate lowering compounds to a regulatory site on PLA2 comes from the rate-lowering effect of such compounds on the hydrolysis of DMPC vesicles containing 0.05 mole fraction cholate.
Scores of other compounds in guggul were not active.

Experiment [1] addresses T2, PLA2 (Sus scrofa, UniProt P00592).
T2 construct: made in house
Kind of experiment: Isothermal calorimetric titration of PLA2 with bile salt. The experiment is classed as binding, pig. The settings on record: ITC. The method, then:
ITC titration of PLA2 with <1 mM (below the CMC) bile salt stock solution was carried out on the Microcal calorimeter (model VP-itc) with cell volume of 1.42 ml with stirring at 300 rpm. Successive injections were made every 5 min. Standard software was used for the peak integration. The heat change with the internal calibration associated with the dilution of the titrant in the […] was subtracted from the heat change obtained by the injection of the bile salt in the presence of 8.5 μM PLA2. The net heat change per injection in the presence of PLA2 was integrated to obtain the total heat change as a function of the total added amphiphile concentration.
(ITC needs no label: the signal is the heat of the interaction.)

The next experiment concerns the target proPLA2 (Sus scrofa, UniProt P00592). Kind of experiment: Bile salt binding by Trp emission, proPLA2. On the set-up: species or system pig. The settings on record: read-out: KEB. As for the experimental part:
(§1) Fluorescence emission spectrum or time course of the intensity change from tryptophan or the resonance energy transfer probe TMA-DPH were measured in the ratio mode on SLM-Aminco AB2 in a 1 cm cuvette [31, 32] in 1.6 ml stirred buffer containing 1 or 2 μM PLA2 in 10 mM Tris, 5 mM CaCl2 and 20 mM NaCl at pH 8.0 and 24° C. The slit-widths were 4 nm with excitation at 280.
(§2) As shown in [45], the binding of decylsulfate to the R site is accompanied by a modest increase in the emission intensity from Trp-3. […] As summarized in Table 2, the value of KEB depends on the position of Trp, although Hill coefficient remains 1. […] Note that KEB for the EB complex of ΔPLA2 is about 7-fold larger than that for PLA2.

The next experiment addresses T3, PLA2 L2W/W3F (Sus scrofa, UniProt P00592, L24W/W25F).
T3 construct: made in house
Kind of experiment: Bile salt binding by Trp emission, L2W/W3F PLA2. On the set-up: species or system pig. Particulars: read-out: KEB. As for the experimental part: as §1, §2

Another experiment deals with T4, PLA2 R6W/W3F (Sus scrofa, UniProt P00592, R28W/W25F).
T4 construct: made in house
Kind of experiment: Bile salt binding by Trp emission, R6W/W3F PLA2. On the set-up: species or system pig. The settings on record: read-out: KEB. The method, then:
as §1, §2

Another experiment concerns the target T5, PLA2 K87W/W3F (Sus scrofa, UniProt P00592, K109W/W25F).
T5 construct: made in house
Briefly: Bile salt binding by Trp emission, K87W/W3F PLA2. Also on record: species or system pig. The settings on record: read-out: KEB. The method, then: as §1, §2

Experiment [2] has as its target T2, PLA2. Kind of experiment: Quenching of RET signal from TMA-DPH bound to PLA2 by bile salts. It counts as binding, pig. The settings on record: 1 μM PLA2 and TMA-DPH, pH 8.0. As for the experimental part:
as §1

Broadly, the Hill coefficient is a measure of the steepness of the concentration-response curve.

Molecules are shown by their SMILES.

T2 sequence (P00592 23-146): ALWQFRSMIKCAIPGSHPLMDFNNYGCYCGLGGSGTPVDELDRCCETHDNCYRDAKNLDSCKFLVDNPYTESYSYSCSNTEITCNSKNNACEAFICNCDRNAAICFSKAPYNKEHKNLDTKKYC
T1 sequence (P04054 23-148): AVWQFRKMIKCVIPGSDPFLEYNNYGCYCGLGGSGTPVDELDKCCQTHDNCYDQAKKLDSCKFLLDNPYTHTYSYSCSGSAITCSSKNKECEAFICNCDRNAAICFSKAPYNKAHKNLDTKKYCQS
T4 sequence (P00592 23-146 W25F/R28W): as the sequence (P00592 23-146) above, with W3F, R6W counted along it
T5 sequence (P00592 23-146 W25F/K109W): as the sequence (P00592 23-146) above, with W3F, K87W counted along it
proPLA2, sequence (P00592 16-146 limits assumed): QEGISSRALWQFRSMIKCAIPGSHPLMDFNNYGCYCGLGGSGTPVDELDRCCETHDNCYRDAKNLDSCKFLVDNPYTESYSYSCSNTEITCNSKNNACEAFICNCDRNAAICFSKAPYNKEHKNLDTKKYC
T3 sequence (P00592 23-146 L24W/W25F): as the sequence (P00592 23-146) above, with L2W, W3F counted along it

For the molecule `C[C@H](CCC(=O)NCCS(=O)(=O)O)[C@H]1CC[C@H]2[C@@H]3[C@H](O)C[C@@H]4C[C@H](O)CC[C@]4(C)[C@H]3CC[C@]12C` [TCDOC, taurochenodeoxycholate], the “Relative Rate-lowering (%) Activity, hPLA2” value on human pancreatic IB PLA2 (0.03 mole fraction, DMPC + 0.05 mole fraction cholate) was found to be 90%. For the same molecule, on human pancreatic IB PLA2 (DMPC vesicles containing 0.05 mole fraction cholate, FIG. 5B), the “relative effectiveness in lowering the rate of hydrolysis by human PLA2” value is on record as “more effective than ezetimibe”. Moreover, the S on PLA2 [1] (8.5 μM PLA2) came to 3.5 cal/mole/deg. Further, the Hill coefficient at PLA2 [1] (single hyperbola fit) was determined as 1. In addition, the Kd on PLA2 [1] (KEB, 8.5 μM PLA2) turned out to be 9 µM; on proPLA2, 27 µM; at PLA2 L2W/W3F, 18 µM; at PLA2 R6W/W3F, 50 µM; at PLA2 K87W/W3F, 200 µM. Moreover, the “efficacy to quench RET signal from TMA-DPH bound to PLA2” value at PLA2 [2] was “most effective”.
